Assay results: patent US20240408053A1, “ENTERITIS-SUPPRESSING COMPOSITION” (KOBE GAKUIN EDUCATIONAL FOUNDATION, priority 2021, published 2024)

Tests used:
[1] = test system: ethanol-induced lesion in mouse colon; assay: Microscopic evaluation of ethanol-induced lesion in mouse colon (HE, TB, MUC2 staining), 2 weeks; assay type: in vivo, mice
HO-1 = assay: Western blotting of HO-1 in colon tissue; assay type: in vivo, mice; details: group ES: 2.0% v/v ethanol diet + 2.5 mg sesaminol per day oral, 2 weeks; group E significantly lower than group C
Source text: Chronic consumption of an excessive amount of ethanol has been reported to increase CYP2E1 and iNOS levels and cause ethanol-induced oxidative stress in the liver and other tissues. The nuclear factor erythroid 2-related factor 2/heme oxygenase-1 (Nrf2/HO-1) system has also been reported to be widely involved in the protection of cells from oxidative damage. Therefore, the expression levels of these proteins (CYP2E1, iNOS, and HO-1) in mouse colon tissue in the four groups (groups C, S, E, and ES) were examined by western blotting (WB).
A colon tissue sample (100 mg) was homogenized in 1 mL of an M-PER mammalian protein extraction reagent (Pierce) containing a diluent of a protease inhibitor cocktail (Nacalai Tesque, Inc.), and the resulting homogenate was centrifuged at 20,000× g at 4° C. for 15 minutes. The protein concentration of the supernatant was measured with a protein assay reagent (Bio-Rad Laboratories, Inc.), and equal amounts of proteins were subjected to SDS-PAGE. Electrophoresed proteins in the gel were transferred to a PVDF membrane, and the membrane was immersed in a blocking reagent (room temperature, overnight). The primary antibody (rabbit polyclonal antibody) was then reacted. […] The band intensities were quantified with ImageJ.

TNF-α = TNF-α expression in colon tissue (qRT-PCR, ELISA); assay type: in vivo, mice; details: group ES: 2.0% v/v ethanol diet + 2.5 mg sesaminol per day oral, 2 weeks, vs group E; higher than group C
Source text: (§1) It has been reported that chronic consumption of an excessive amount of ethanol can induce inflammation associated with tumor formation in colon tissue. Therefore, in order to verify whether oral administration of sesaminol has a preventive effect on ethanol-induced colitis, the expression levels of inflammatory cytokines (TNF-α and IL-6) and chemokine (MCP-1) in the large intestinal lamina propria of the mice in the four groups (groups C, S, E, and ES) were examined by qRT-PCR and ELISA. The NF-κB activity in the mice in the four groups was also examined. NF-κB is a transcription factor that is involved in expression of genes regulating inflammation and is activated by exposure of immune cells to pro-inflammatory factors.
Total RNA was extracted from colon tissue samples. […]
A colon tissue sample (100 mg) was homogenized in 1 mL of an M-PER mammalian protein extraction reagent (Pierce) containing a diluent of a protease inhibitor cocktail (Nacalai Tesque, Inc.), and the resulting homogenate was centrifuged at 20,000× g at 4° C. for 15 minutes. The protein concentration of the supernatant was measured with a protein assay reagent (Bio-Rad Laboratories, Inc.), and equal amounts of proteins were used for analysis of the expression levels of TNF-α, IL-6, and MCP-1 by ELISA.

NF-κB p65 = NF-κB p65 activation level in colon tissue extract by ELISA; assay type: in vivo, mice; details: group ES: 2.0% v/v ethanol diet + 2.5 mg sesaminol per day oral, 2 weeks, vs group E
Source text: as §1

[2] = Change in body weight and general observation, 4 weeks; assay type: in vivo; details: groups S and ES (2.5 mg sesaminol per day, oral) vs groups C and E
Method: Ten-week-old C57BL/6NCr male mice were divided into four groups (eight mice per group), i.e., group C, group S, group E, and group ES, and fed daily for 4 weeks in the same manner as in Example 1.
The body weights of the mice in the above four groups (group C, group S, group E, and group ES) were measured every week.

[3] = Body weight and percentage of liver weight relative to body weight, 4 weeks; assay type: in vivo, mice; details: mean ±SD
Source text: The liver function and plasma lipid level in the mice in each group were examined by measuring the percentage of the liver weight relative to the body weight, the triglyceride (TG) concentration in the liver, the aspartate aminotransferase (AST) activity in the plasma, the alanine aminotransferase (ALT) activity in the plasma, and the TG concentration in the plasma of the mice in each group.
The body weight of mice fed for 4 weeks were weighed and dissected under anesthesia. The liver was removed and weighed. The weight ratio between the body weight and the liver of each individual was evaluated.

[4] = test system: ethanol-induced lesions in mouse colon; assay: Microscopic evaluation of colon tissue (HE, TB, PAS, MUC2 staining), 4 weeks; assay type: in vivo, mice; details: group ES: 2.0% v/v ethanol diet + 2.5 mg sesaminol per day oral
Method: In order to verify the longer-term effect of oral administration of sesaminol on ethanol-induced oxidative stress in mouse colon, the colonic epithelium of the mice in each group (groups C, E, S, and ES) described in Example 7 was HE-stained, TB-stained, and periodic-acid-Schiff (PAS)-stained and observed under a microscope (FIGS. 10(A),(B), and (C)). Immunostaining with MUC2 polyclonal antibody was then performed (FIG. 10(D)). HE staining, TB staining, and immunostaining with MUC2 polyclonal antibody were performed in the same manner as in Example 2.
Colon tissue samples were each fixed in a 10% v/v neutral formaldehyde solution overnight at room temperature and paraffin-embedded. The colon tissue sections were then stained with PAS staining reagent for the detection of goblet cells. Each stained specimen was observed under a microscope and subjected to image analysis.

claudin-1 = assay: Immunofluorescence staining of Claudin-1 in colon tissue, 4 weeks; assay type: in vivo, mice; details: group ES: 2.0% v/v ethanol diet + 2.5 mg sesaminol per day oral, group E significant decrease
Method: Next, in order to verify the longer-term effect of oral administration of sesaminol on ethanol-induced intestinal tight junction (TJ) dysfunction and leaky gut, histological analysis of colonic epithelial TJ proteins (ZO-1, Occludin, and Claudin-1) and analysis of the plasma LPS level were performed using the mice in each group (groups C, S, E, and ES) described in Example 7. Histological analysis was performed by immunofluorescence staining with anti-ZO-1, anti-Occludin, and anti-Claudin-1 antibodies, followed by observation under a fluorescence microscope. The Plasma LPS level was measured according to the method described in Example 6.

[5] = group ES: 2.0% v/v ethanol diet + 2.5 mg sesaminol per day oral, vs group E
[6] = EtOH (2.0% v/v) + Sesaminol group ES

## Oc1cc2c(cc1C1OCC3C(c4ccc5c(c4)OCO5)OCC13)OCO2 (stereo not shown) [Sesaminol]
[1]; [5]
  degree of lesion in colonic epithelium: smaller degree of lesion compared with that observed in group E
  microscopic lesion score of colon tissue: significantly lower than that of group E
[1]; group S: 2.5 mg sesaminol per day oral, no ethanol
  lesions in colonic epithelium: No obvious lesions
HO-1
  HO-1 expression level: recovery of the expression level
TNF-α
  expression level of TNF-α (mRNA by qRT-PCR, protein by ELISA): significantly lower than those in group E
NF-κB p65
  NF-κB p65 activation level: significantly lower than that in group E
[2]
  body-weight changes between the groups: No significant differences
[3]; [6]
  Body weight: 25.4 ± 1.0 g
  Liver/body weight ratio: 4.04 ± 0.41 g/g, %
[3]; Sesaminol (2.5 mg/d) group S
  Body weight: 25.9 ± 0.8 g
  Liver/body weight ratio: 3.96 ± 0.55 g/g, %
[4]
  histological image of colon tissue (epithelium atrophy, goblet cells, mucus-secreting cells): tendency of returning to the histological image of group C
claudin-1
  protein level of Claudin-1 in colon tissue (fluorescence microscope observation): improvement in all of those levels
